Laboratory results as given in paper PMC12455397 (Angewandte Chemie (International Ed. in English), 2025).
Each block holds one compound with its values, some of them ahead of it.

Experiments:
human Keap1 Kelch = human Keap1 Kelch (Homo sapiens, UniProt Q14145); test: Fluorescence polarization (FP) competition assay with Cy5-Nrf2 peptide probe; conditions: for Ki: ≥3 individual measurements; for ligand efficiency (LE): from FP Ki; for fold improvement in binding affinity (FP) over parent analogue: 7 vs 4, 12 vs 7, 13 vs 12
[1] = test system: differentiated THP1 macrophages (WT)
[2] = test system: Nrf2 KO THP1 cells differentiated into macrophages; test: RNA sequencing transcriptome analysis, Nrf2 KO THP-1 macrophages; assay type: cell-based; conditions: 12 h, CDDO-Me 0.1 µM, DMF, 24, 28 10 µM, KI-696 1 µM
[3] = test system: Nrf2-regulated genes (AKR1B10, NQO1, TRXR1, HO-1) in HaCaT human keratinocytes; test: HaCaT cell assay, Western Blotting of Nrf2-regulated proteins; assay type: cell-based; conditions: HaCaT, 10 µM, 24 h
[4] = FP (Ki/nM), Table S2, mean ± SEM, NA: not active (measured up to 4 mM)
[5] = Ki (FP), mean, text and figures
[6] = WT, 12 h, CDDO-Me 0.1 µM, SFN, DMF, 24, 28 10 µM, KI-696 1 µM

Chain of human Keap1 Kelch (Q14145 321-609): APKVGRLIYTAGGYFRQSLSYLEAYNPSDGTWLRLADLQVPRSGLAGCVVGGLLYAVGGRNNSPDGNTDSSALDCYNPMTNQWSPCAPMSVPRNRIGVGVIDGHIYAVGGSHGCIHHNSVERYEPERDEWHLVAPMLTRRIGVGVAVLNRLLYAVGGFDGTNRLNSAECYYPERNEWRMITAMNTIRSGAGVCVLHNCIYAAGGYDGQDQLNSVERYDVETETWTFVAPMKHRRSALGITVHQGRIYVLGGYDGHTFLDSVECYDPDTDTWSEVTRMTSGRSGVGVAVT

Structure (SMILES): COC(=O)[C@]12CCC(C)(C)C[C@H]1[C@H]1C(=O)C=C3[C@@]4(C)C=C(C#N)C(=O)C(C)(C)[C@@H]4CC[C@@]3(C)[C@]1(C)CC2 [CDDO-Me, bardoxolone methyl]
AKR1B10 FC ([1]; Table S3, THP-1, 12 h): 61,69 fold
CASP1 FC ([1]; Table S3, THP-1, 12 h): 1,31 fold
COL1A1 FC ([1]; Table S3, THP-1, 12 h): 3,46 fold
COL4A1 FC ([1]; Table S3, THP-1, 12 h): 0,30 fold
COL4A2 FC ([1]; Table S3, THP-1, 12 h): 0,49 fold
GPX1 FC ([1]; Table S3, THP-1, 12 h): 0,44 fold
GPX4 FC ([1]; Table S3, THP-1, 12 h): 0,91 fold
IFNAR1 FC ([1]; Table S3, THP-1, 12 h): 0,82 fold
IFNAR2 FC ([1]; Table S3, THP-1, 12 h): 0,52 fold
IFNGR1 FC ([1]; Table S3, THP-1, 12 h): 0,81 fold
IFNGR2 FC ([1]; Table S3, THP-1, 12 h): 0,41 fold
IL1B FC ([1]; Table S3, THP-1, 12 h): 0,13 fold
IRF3 FC ([1]; Table S3, THP-1, 12 h): 0,95 fold
LAMB1 FC ([1]; Table S3, THP-1, 12 h): 3,83 fold
LAMB4 FC ([1]; Table S3, THP-1, 12 h): 5,61 fold
MMP8 FC ([1]; Table S3, THP-1, 12 h): 0,21 fold
MMP9 FC ([1]; Table S3, THP-1, 12 h): 0,51 fold
MMP12 FC ([1]; Table S3, THP-1, 12 h): 0,25 fold
NLRP3 FC ([1]; Table S3, THP-1, 12 h): 0,43 fold
NOD2 FC ([1]; Table S3, THP-1, 12 h): 0,78 fold
NOXA1 FC ([1]; Table S3, THP-1, 12 h): 0,67 fold
SOCS1 FC ([1]; Table S3, THP-1, 12 h): 0,37 fold
SOCS3 FC ([1]; Table S3, THP-1, 12 h): 1,14 fold
SOD1 FC ([1]; Table S3, THP-1, 12 h): 2,71 fold
SOD2 FC ([1]; Table S3, THP-1, 12 h): 0,36 fold
STAT1 FC ([1]; Table S3, THP-1, 12 h): 1,02 fold
TBK1 FC ([1]; Table S3, THP-1, 12 h): 1,06 fold
TLR4 FC ([1]; Table S3, THP-1, 12 h): 0,26 fold
TNFRSF1B FC ([1]; Table S3, THP-1, 12 h): 0,27 fold
TRAP1 FC ([1]; Table S3, THP-1, 12 h): 0,64 fold
cGAS FC ([1]; Table S3, THP-1, 12 h): 1,19 fold
number of upregulated genes not shared by the other groups ([1]; WT, 12 h, CDDO-Me 0.1 µM, DMF 10 µM): > 500 genes
Average FC of upregulated Nrf2-dependent genes [1, 6]: 5.0 fold
number of upregulated genes (FC >2.0, p-adj <0.05) [1, 6]: 1091 genes
number of up- or downregulated genes in Nrf2 KO cells [2]: 2149 genes

Structure (SMILES): COc1ccc(NC(=O)COc2ccc3ccc(CCC(=O)O)cc3c2)cc1 [Compound 9]
Ki (human Keap1 Kelch; [4]): 69600 ± 9400 nM
Ki (human Keap1 Kelch; Ki (FP), mean): 70000 nM

Structure (SMILES): O=C(O)CCc1ccc2ccc(OCC(=O)NN3CCOCC3)cc2c1 [Compound 6]
Ki (human Keap1 Kelch; [4]): 268000 ± 29000 nM
Ki (human Keap1 Kelch; Ki (FP), mean): 270000 nM

Structure (SMILES): O=C(O)CCc1ccc2ccc(OCC(=O)NC3CCCCC3)cc2c1 [Compound 4]
Ki (human Keap1 Kelch; [4]): 15500 ± 1300 nM
Ki (human Keap1 Kelch; Ki (FP), mean): 16000 nM
ligand efficiency (LE) (human Keap1 Kelch): 0.25

Structure (SMILES): COc1cccc(C(CC(=O)O)c2ccc3ccc(OCC(=O)NC4CCCCCC4)cc3c2)c1 (stereo not shown) [Compound 14]
Ki (human Keap1 Kelch; [4]): 284 ± 31 nM
Ki (human Keap1 Kelch; [5]): 280 nM

Structure (SMILES): Cc1cc(C)c(C)c(NC(=O)COc2ccc3ccc(CCC(=O)O)cc3c2)c1C [Compound 11]
Ki (human Keap1 Kelch; [4]): 196000 ± 24000 nM
Ki (human Keap1 Kelch; Ki (FP), mean): 200000 nM

Structure (SMILES): O=C(O)CC(c1ccccc1)c1ccc2ccc(OCC(=O)NC3CCCCCC3)cc2c1 (stereo not shown) [Compound 12]
fold improvement in binding affinity (FP) over parent analogue (human Keap1 Kelch): 6 fold
Ki (human Keap1 Kelch; [4]): 1060 ± 99 nM
Ki (human Keap1 Kelch; Ki (FP), mean): 1100 nM
ligand efficiency (LE) (human Keap1 Kelch): 0.25

Structure (SMILES): O=C(O)CCc1ccc2ccc(OCC(=O)Nc3ccccc3)cc2c1 [Compound 8]
Ki (human Keap1 Kelch; [4]): 10200 ± 2400 nM
Ki (human Keap1 Kelch; Ki (FP), mean): 10000 nM

Structure (SMILES): O=C(O)CCc1ccc2ccc(OCC(=O)NC3CCCCCC3)cc2c1 [Compound 7]
fold improvement in binding affinity (FP) over parent analogue (human Keap1 Kelch): 2 fold
Ki (human Keap1 Kelch; [4]): 6560 ± 580 nM
Ki (human Keap1 Kelch; Ki (FP), mean): 6600 nM
ligand efficiency (LE) (human Keap1 Kelch): 0.26

Structure (SMILES): O=C(O)CC(c1ccc(Cl)cc1)c1ccc2ccc(OCC(=O)NC3CCCCCC3)cc2c1 (stereo not shown) [Compound 15]
Ki (human Keap1 Kelch; [4]): 294 ± 25 nM
Ki (human Keap1 Kelch; [5]): 290 nM

Second part, led by results:

Ki (human Keap1 Kelch; [4]): 53.9 ± 6.1 nM
Ki (human Keap1 Kelch; [5]): 54 nM
Structure (SMILES): O=C(O)CC(c1cccc(Cl)c1)c1ccc2ccc(OCC(=O)NC3CCCCCC3)cc2c1 (stereo not shown) [Compound 16]

Ki (human Keap1 Kelch; [4]): 26.7 ± 4.2 nM
Ki (human Keap1 Kelch; [5]): 27 nM
Structure (SMILES): O=C(O)CC(c1ccc2c(c1)CCO2)c1ccc2ccc(OCC(=O)NC3C=CCCC3)cc2c1 (stereo not shown) [Compound 40]
protein levels of Nrf2-regulated genes by WB [3]: strong bands in WB for all tested proteins

Ki (human Keap1 Kelch; [4]): 51.4 ± 4.8 nM
Ki (human Keap1 Kelch; [5]): 51 nM
Structure (SMILES): O=C(O)CC(c1ccc2c(c1)OC(F)(F)O2)c1ccc2ccc(OCC(=O)NC3CCCCC3)cc2c1 (stereo not shown) [Compound 32]

Ki (human Keap1 Kelch; [4]): 21.1 ± 1.5 nM
Ki (human Keap1 Kelch; [5]): 21 nM
Structure (SMILES): O=C(O)CC(c1ccc2ccc(OCC(=O)NC3C=CCCC3)cc2c1)c1ccc2occc2c1 (stereo not shown) [Compound 41]

Ki (human Keap1 Kelch; [4]): 24.4 ± 0.4 nM
Ki (human Keap1 Kelch; [5]): 24 nM
Structure (SMILES): Cc1cc2occc2cc1C(CC(=O)O)c1ccc2ccc(OCC(=O)NC3CCCCC3)cc2c1 (stereo not shown) [Compound 36]

Ki (human Keap1 Kelch; [4]): 29.3 ± 1.7 nM
Ki (human Keap1 Kelch; [5]): 29 nM
Structure (SMILES): O=C(O)CC(c1ccc2c(c1)OCCO2)c1ccc2ccc(OCC(=O)NC3CCCCC3)cc2c1 (stereo not shown) [Compound 33]

Ki (human Keap1 Kelch; [4]): 68.2 ± 12 nM
Ki (human Keap1 Kelch; [5]): 68 nM
Structure (SMILES): O=C(O)CC(c1ccc2ccc(OCC(=O)NC3CCCCC3)cc2c1)c1ccc2occc2c1 (stereo not shown) [Compound 31]

Ki (human Keap1 Kelch; [4]): 23.6 ± 2.2 nM
Ki (human Keap1 Kelch; [5]): 24 nM
Structure (SMILES): COc1ccc(C(CC(=O)O)c2ccc3ccc(OCC(=O)NC4CCCCCC4)cc3c2)c(C)c1 (stereo not shown) [Compound 17]

Ki (human Keap1 Kelch; [4]): 29.9 ± 2.2 nM
Ki (human Keap1 Kelch; [5]): 30 nM
Structure (SMILES): O=C(O)CC(c1ccc2c(c1)OC(F)(F)O2)c1ccc2ccc(OCC(=O)NC3C=CCCC3)cc2c1 (stereo not shown) [Compound 42]

Ki (human Keap1 Kelch; [4]): 18.1 ± 5.9 nM
Ki (human Keap1 Kelch; [5]): 18 nM
Structure (SMILES): Cc1cc2c(cc1C(CC(=O)O)c1ccc3ccc(OCC(=O)NC4CCCCC4)cc3c1)OCO2 (stereo not shown) [Compound 34]

Ki (human Keap1 Kelch; [4]): 59.5 ± 8.4 nM
Ki (human Keap1 Kelch; [5]): 60 nM
Structure (SMILES): Cc1c(Cl)cccc1C(CC(=O)O)c1ccc2ccc(OCC(=O)NC3CCCCCC3)cc2c1 (stereo not shown) [Compound 18]

Ki (human Keap1 Kelch; [4]): 14.1 ± 2.4 nM
Ki (human Keap1 Kelch; [5]): 14 nM
Structure (SMILES): Cc1cc2c(cc1C(CC(=O)O)c1ccc3ccc(OCC(=O)NC4CCCCCC4)cc3c1)OC(F)(F)O2 (stereo not shown) [Compound 27]

Ki (human Keap1 Kelch; [4]): 82.1 ± 7.9 nM
Ki (human Keap1 Kelch; [5]): 82 nM
Structure (SMILES): O=C(O)CC(c1ccc2c(c1)CCO2)c1ccc2ccc(OCC(=O)NC3CCCCC3)cc2c1 (stereo not shown) [Compound 30]
